Data taken from US20230310634A1, “ANTI-HUMAN VISTA ANTIBODIES AND USE THEREOF” (IMMUNEXT, INC., priority 2020, published 2023).
Entries after “also recorded” stand apart in the source; their conditions may differ.

What was measured:
[1] = tested on: LPS stimulated human PBMCs; assay: In vitro potency of steroid payloads in LPS stimulated human PBMCs (IL-1β, IL-6 ELISA); format: cell-based
FKBP5 [2] = assay: FKBP5 transcriptional activation in isolated human Tregs (qRT-PCR); format: cell-based; details: Experiment 3; 20 nM payload or molar equivalent; 2 donors
Excerpt: (§1) To monitor/confirm GC delivery and activity, we measured by quantitative Real Time PCR (qRT-PCR) the transcriptional activation of FKBP5 that is a direct and robust biomarker of glucocorticoid activity (JCEM 101: 4305-4312, 2016). We conducted this assessment on isolated human monocytes, regulatory T cells (T regs) and B cells following in vitro treatment with ADCs.
For monocytes vs B cell analyses, one blood donor collection was used for the single drug concentration experiment; blood from a separate single donor collection was used to assess drug dose response. For the regulatory T cell (Treg) analysis, blood from two separate donors was used.
(§2) The various immune populations were isolated using different cell isolation kits and following manufacturer instructions: • EasySep Human monocyte enrichment kit without CD16 depletion (StemCell cat #19058) • Pan B cell isolation kit, human (Miltenyi Biotec, 130-101-638) • EasySep™ Human CD4^+ CD127 low CD49d− regulatory T cell enrichment Kit (StemCell cat #19232) […]
(§3) After one wash with PBS, RNA was isolated from cell pellets using either the RNeasy Plus Mini kit (Qiagen, PN: 74136) or NucleoSpin RNA Plus (Macherey-Nagel #740984.250). […] RNA concentration was assessed by UV spectroscopy using a Nanodrop 2000. […]
(§4) Quantitative Real-Time PCR was done using Taqman master mix 2× kit (#4369016) and run on a QuantStudio3 from Applied Biosystem. […]

[3] = mouse, in vivo; cited from earlier work
FKBP5 [4] = assay: FKBP5 transcriptional activation in isolated human B cells (qRT-PCR); format: cell-based; details: Experiment 1; 20 nM payload or molar equivalent; 1 day; relative to no-treatment control
Excerpt: as §1
(§5) Monocytes or B cells were isolated from healthy donor blood samples and treated with free steroid, anti-VISTA conjugated steroid, or conjugated isotype control. RNA was isolated, and change in FKBP5 transcript level assessed by qPCR.
as §2, §3, §4

FKBP5 [5] = assay: FKBP5 transcriptional activation in isolated human monocytes (qRT-PCR); format: cell-based; details: Experiment 1; 20 nM payload or molar equivalent; 1 day; relative to no-treatment control
Excerpt: as §1, §5, §2, §3, §4

Q: For `C[C@]12C=CC(=O)C=C1CC[C@@H]1[C@@H]2[C@@H](O)C[C@@]2(C)[C@H]1C[C@H]1O[C@@H](c3ccc(CC45CC(N)(C4)C5)cc3)O[C@]12C(=O)CO` [INX-SM-3, (6aR,6bS,7S,8aS,8bS,10R,11aR,12aS,12bS)-10-(4-((3-aminobicyclo[1.1.1]pentan-1-yl)methyl)phenyl)-7-hydroxy-8b-(2-hydroxyacetyl)-6a,8a-dimethyl-1,2,6a,6b,7,8,8a,8b,11a,12,12a,12b-dodecahydro-4H-naphtho[2′,1′:4,5]indeno[1,2-d][1,3]dioxol-4-one], which “steroid potency as free payloads in LPS-activated human PBMCS (conclusions)” value [1] is on record?
A: The value was “varying degrees of dose dependent steroid potency”.

Q: What about the “potency relative to the other compounds of the experiment” value ([1]; 1 ng/mL LPS, 24 hr) of the same molecule?
A: The value was “most potent compound among these three; also recorded: most potent compound among these compounds tested”.

Q: What about the “IL-1β and IL-6 production” value ([1]; Experiment 1, 1000-1 nM, 1 ng/mL LPS, 24 hr, n=1 donor) of the same molecule?
A: Its value is “inhibit both IL-1β and IL-6 production”.

Q: What about the IL-1β production ([1]; Experiment 2, 1000-1 nM, 1 ng/mL LPS, 24 hr, n=1 donor) of the same molecule?
A: The IL-1β production was “show inhibition in IL-1β production”.

Q: What about the “FKBP5 transcription in Tregs” value (FKBP5 [2]) of the same molecule?
A: The value was “increased FKBP5 transcription”.

Q: For `C[C@@H]1C[C@H]2[C@@H]3CCC4=CC(=O)C=C[C@]4(C)[C@@]3(F)[C@@H](O)C[C@]2(C)[C@@]1(O)C(=O)CO` [dexamethasone], which “toxicity in this IBD model (literature)” value [3] is on record?
A: Its value is “causes toxicity in this IBD model”.

Q: Which results are given for `C[C@]12C=CC(=O)C=C1CC[C@@H]1[C@@H]2[C@@H](O)C[C@@]2(C)[C@H]1C[C@H]1O[C@@H](c3ccc(Cc4cccc(N)c4)cc3)O[C@]12C(=O)CO` [free J payload]?
A: FKBP5 transcription in B cells (FKBP5 [4]): robust increase in FKBP5 transcription; FKBP5 transcription in monocytes (FKBP5 [5]): robust increase in FKBP5 transcription
